Reference: patent US10906880B2, “Kind of isothiazole oxime ether-containing strobilurin derivatives and its preparation methods and application” (priority 2016, dated 2021)
Like-named read-outs stand apart in the source and are kept apart here.

Columns and labels:
TMV [1] = experiment: Anti-TMV activity on tobacco, protection mode; type: in vivo, tobacco mosaic virus; conditions: Tobacco mosaic virus, 100 μg/mL, read-out: Anti-TMV activity inhibition, Protection effect
[2] = tested on: Phytophthora infestans (Mont) de Bary; experiment: microbe, parasite or virus in culture; type: cell-based; conditions: for inhibition at 50 µg/mL: Phytophthora infestans, read-out: Fungicidal activity inhibition, PI, 50 μg/mL, P. infestans (Mont.) de Bary; for Fungicidal activity inhibition, PI: 50 μg/mL, P. infestans (Mont.) de Bary
TMV [3] = experiment: Anti-TMV activity on tobacco, inactivation mode; type: in vivo, tobacco mosaic virus; conditions: Tobacco mosaic virus, 100 μg/mL, read-out: Anti-TMV activity inhibition, Inactivation effect
TMV [4] = experiment: Anti-TMV activity on tobacco, curative mode; type: in vivo, tobacco mosaic virus; conditions: Tobacco mosaic virus, 100 μg/mL, tobacco; read-out: Anti-TMV activity inhibition, Curative effect
Sclerotinia sclerotiorum = experiment: Fungicide activity, mycelial growth inhibition on PDA plate; type: cell-based; conditions: for inhibition at 50 µg/mL: Sclerotinia sclerotiorum, read-out: Fungicidal activity inhibition, SS
Botrytis cinerea = experiment: as above; type: cell-based; conditions: for inhibition at 50 µg/mL: Botrytis cinerea, read-out: Fungicidal activity inhibition, BC
TMV [5] = experiment: Anti-TMV activity on tobacco, induction mode (systemic acquired resistance); type: in vivo, tobacco mosaic virus; conditions: Tobacco mosaic virus, 100 μg/mL, read-out: Anti-TMV activity inhibition, Induction effect
Physalospora piricola = experiment: Fungicide activity, mycelial growth inhibition on PDA plate; type: cell-based; conditions: for inhibition at 50 µg/mL: 50 μg/mL, P. piricola, read-out: Fungicidal activity inhibition, PP
Cercospora arachidicola = experiment: as above; type: cell-based; conditions: for inhibition at 50 µg/mL: Mycosphaerella arachidis, read-out: Fungicidal activity inhibition, CA
Pellicularia sasakii = experiment: as above; type: cell-based; conditions: for inhibition at 50 µg/mL: 50 μg/mL, P. sasakii, read-out: Fungicidal activity inhibition, PS
Rhizoctonia cerealis = experiment: as above; type: cell-based; conditions: for inhibition at 50 µg/mL: Ceratobasidium cereale, read-out: Fungicidal activity inhibition, RC
Alternaria solani = experiment: as above; type: cell-based; conditions: for inhibition at 50 µg/mL: Alternaria solani, read-out: Fungicidal activity inhibition, AS
Gibberella zeae = experiment: microbe, parasite or virus in culture; type: cell-based; conditions: for Fungicidal activity inhibition, GZ: 50 μg/mL, G. zeae

Row | SMILES | inhibition at 100 µg/mL (TMV [1]) [%] | inhibition at 50 µg/mL [2] [%] | inhibition at 100 µg/mL (TMV [3]) [%] | inhibition at 100 µg/mL (TMV [4]) [%] | inhibition at 50 µg/mL (Sclerotinia sclerotiorum; 50 μg/mL, S. sclerotiorum) [%] | inhibition at 50 µg/mL (Botrytis cinerea; 50 μg/mL, B. cinerea) [%] | inhibition at 50 µg/mL (Botrytis cinerea) [%] | inhibition at 100 µg/mL (TMV [5]) [%] | inhibition at 50 µg/mL (Physalospora piricola) [%] | inhibition at 50 µg/mL (Cercospora arachidicola; 50 μg/mL, C. arachidicola) [%] | inhibition at 50 µg/mL (Cercospora arachidicola) [%] | inhibition at 50 µg/mL (Pellicularia sasakii) [%] | inhibition at 50 µg/mL (Rhizoctonia cerealis; 50 μg/mL, R. cerealis) [%] | inhibition at 50 µg/mL (Rhizoctonia cerealis) [%] | inhibition at 50 µg/mL (Alternaria solani; 50 μg/mL, A. solani) [%] | Fungicidal activity inhibition, GZ (Gibberella zeae) [%] | inhibition at 50 µg/mL (Sclerotinia sclerotiorum) [%] | melting point [°C] | inhibition at 50 µg/mL (Alternaria solani) [%] | further results
1 | CO/N=C(/C(=O)NC(C)(C)CSC)c1ccccc1CO/N=C(\C)c1snc(Cl)c1Cl [CL04-22E] | 22.7 ± 2.05 | 28.6 | > 30 | 20.2 ± 5.58 | 29.4 | 62.5 | > 45 | 12.7 ± 6.05 | 42.9 | 45.8 | > 30 | 21.2 | 76 | > 50 | 27.3 |  |  |  |  | 
2 | CO/C=C(/C(=O)OC)c1ccccc1CO/N=C(C)/C=C/c1ccc(Cl)cc1 [Enestroburin, reference compound] |  |  |  |  |  |  |  |  |  |  |  |  |  |  |  | 21.54 |  |  |  | Fungicidal activity inhibition, PI [2]: 32.97%; Fungicidal activity inhibition, SS (Sclerotinia sclerotiorum): 44.00%; Fungicidal activity inhibition, BC (Botrytis cinerea): 48.57%; Fungicidal activity inhibition, PP (Physalospora piricola): 59.09%; Fungicidal activity inhibition, CA (Cercospora arachidicola): 55.22%; Fungicidal activity inhibition, PS (Pellicularia sasakii): 57.50%; Fungicidal activity inhibition, RC (Rhizoctonia cerealis): 73.97%; Fungicidal activity inhibition, AS (Alternaria solani): 50.00%
3 | CO/N=C(/C(=O)NCC(F)F)c1ccccc1CO/N=C(C)/C=C/c1snc(Cl)c1Cl [CL04-32A] | > 40 |  | > 30 | 1.52 ± 0.62 | 53.3 | 52.6 | > 45 | > 30 | 29.8 | 36 | > 30 | 35.1 | 85.4 | > 50 | 34.4 |  | > 40 | 98 to 100 | > 30 | inhibition at 50 µg/mL (Gibberella zeae; Fusarium graminearum, read-out: Fungicidal activity inhibition, GZ, 50 μg/mL, G. zeae): > 30%
4 | CO/N=C(/C(=O)NC1CC1)c1ccccc1CO/N=C(\N)c1snc(Cl)c1Cl [CL04-25B] | 19.6 ± 3.36 | 33.3 | 0 | 20.5 ± 1.84 | 73.3 | 36.8 |  | 18.6 ± 3.76 | 22.8 | 28 |  | 18.9 | 85.4 | > 50 | 21.3 |  | > 40 |  |  | 
5 | CO/N=C(/C(=O)OC)c1ccccc1CO/N=C(C)/C=C/c1snc(Cl)c1Cl [CL04-17] | 29.3 ± 1.31 | > 40 | > 30 | > 30 | 86.7 | 100 |  | > 30 | 47.8 | 50 | > 30 | 58.8 | 81.5 | > 50 | 35.7 |  | > 40 | 105 to 107 | > 30 | 
6 | C#CCNC(=O)/C(=N/OC)c1ccccc1CO/N=C(\C)c1snc(Cl)c1Cl [CL04-22B] | > 40 |  | > 30 | 1.52 ± 0.62 | 100 | 51.9 | > 45 |  | 49.1 | 35.7 | > 30 | 73.3 | 86.9 | > 50 | 28.6 | 100 |  | 120 to 122 |  | 
7 | CNC(=O)/C(=N/OC)c1ccccc1CO/N=C(C)/C=C/c1snc(Cl)c1Cl [CL04-32D] | 39.1 ± 2.73 |  |  | 1.52 ± 0.62 | 73.3 | 84.2 | > 45 | > 30 | 64.9 | 84 |  | 89.2 | 85.4 | > 50 | 54.1 | 100 | > 40 | 137 to 139 | > 30 | Fungicidal activity inhibition, PI [2]: 100%
